“And” between values parts separate entries of the source, which are not always exact repeats. Identical values can stand only once.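 Method: 48-hour compound exposure of cells in 96-well plates, five concentrations, linear interpolation of endpoints. GI50 = concentration required for 50% inhibition of growth. The concentration for full growth arrest is given as TGI.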
Legend:
Experiment in all cases: inhibition of tumour cell growth, NCI panel, 48 h
[1] = tested on: SF-268 CNS
[2] = tested on: NCI-H522 lung
[3] = tested on: OVCAR-5 ovarian
[4] = tested on: 786-0 renal
[5] = tested on: CAKI-1 renal
[6] = tested on: NCI-H23 lung
[7] = tested on: A549 NSCLC
[8] = tested on: MDA-MB-435
[9] = tested on: T-47D breast
[10] = tested on: HT29 colon

Structure (SMILES) | GI50 [1] | TGI [1] | GI50 [2] | TGI [2] | GI50 [3] | TGI [3] | GI50 [4] | TGI [4] | GI50 [5] | TGI [5] | GI50 [6] | TGI [6] | GI50 [7] | TGI [7] | GI50 [8] | TGI [8] | GI50 [9] | TGI [9] | GI50 [10] | TGI [10]
CCNNC(=O)[C@@H]1[C@H](c2cc(OC)c(OC)c(OC)c2)c2cc3c(cc2[C@H](O)[C@H]1CO)OCO3 | 1310 nM | > 100 µM | 288 nM | 0.833 µM | 519 nM | > 100 µM | 495 nM | > 100 µM | 596 nM | > 100 µM | 372 nM | > 100 µM | 376 nM | > 100 µM | 240 nM | 0.697 µM | > 100 µM | > 100 µM | 351 nM | 13 µM
CN(CC(=O)O)Cc1oc(CO)cc(=O)c1O |  | > 100 µM |  | > 100 µM |  | > 100 µM |  | > 100 µM |  | > 100 µM |  | > 100 µM |  | > 100 µM |  | > 100 µM |  | > 100 µM |  | > 100 µM
Cc1nc2c(N3CCCC3)nc(N3CCNCC3)nc2nc1NCc1ccccc1 | 5750 nM | 12.2 µM and 15.1 µM | 869 nM | 4.56 µM and 4.21 µM | 6110 nM | 11.6 µM and 26.1 µM | 1620 nM | 10.5 µM and 3.18 µM | 4820 nM | 10.6 µM and 14 µM | 6770 nM | 12.7 µM and 23.7 µM | 5450 nM | 12.6 µM and 14.2 µM | 4360 nM | 10 µM and 6.41 µM | 3.23 µM | 13.8 µM and 4.96 µM | 1950 nM | 8.36 µM and 11.7 µM
COc1cc(C2CC(=O)Nc3c2ccc2ccccc32)cc(Br)c1OC (stereo not given) | 933 nM | > 100 µM | 410 nM | 8.42 µM | 2010 nM | > 79.3 µM | 569 nM | > 39.3 µM | 375 nM | > 100 µM | 565 nM | > 100 µM | 549 nM | > 49.7 µM | 138 nM | 0.464 µM | 0.811 µM | > 100 µM | 370 nM | 18.2 µM
Cc1cc(C)c(S(=O)(=O)N(CCc2cccc(Br)c2)Cc2ccc(-c3cccc(S(C)(=O)=O)c3)cc2)c(C)c1 | > 100000 nM | > 100 µM | > 100000 nM | > 100 µM | > 100000 nM | > 100 µM | > 100000 nM | > 100 µM | > 100000 nM | > 100 µM | > 100000 nM | > 100 µM | > 100000 nM | > 100 µM | > 100000 nM | > 100 µM | > 100 µM | > 100 µM | > 100000 nM | > 100 µM

— PubChem BioAssay (NCI)
